A word on the IC50: it is the concentration needed to halve the response being measured. Low values mean inhibition by little substance, high ones a need for much substance.

Some results are limits rather than exact numbers.

The experiment addresses USP14 (Homo sapiens (Human), UniProt P54578). Kind of experiment: Usp14 inhibition assay (Example 57B, B-series compounds). Type of experiment: biochemical. To be noted: IC50 class; average value from a minimum of two experimental determinations. The text has this:
Example 57B: Usp14 Inhibition Assay
The IC50 values in the Table below represent the average value from a minimum of two experimental determinations.

Sequence of USP14 (P54578 whole entry, looked up): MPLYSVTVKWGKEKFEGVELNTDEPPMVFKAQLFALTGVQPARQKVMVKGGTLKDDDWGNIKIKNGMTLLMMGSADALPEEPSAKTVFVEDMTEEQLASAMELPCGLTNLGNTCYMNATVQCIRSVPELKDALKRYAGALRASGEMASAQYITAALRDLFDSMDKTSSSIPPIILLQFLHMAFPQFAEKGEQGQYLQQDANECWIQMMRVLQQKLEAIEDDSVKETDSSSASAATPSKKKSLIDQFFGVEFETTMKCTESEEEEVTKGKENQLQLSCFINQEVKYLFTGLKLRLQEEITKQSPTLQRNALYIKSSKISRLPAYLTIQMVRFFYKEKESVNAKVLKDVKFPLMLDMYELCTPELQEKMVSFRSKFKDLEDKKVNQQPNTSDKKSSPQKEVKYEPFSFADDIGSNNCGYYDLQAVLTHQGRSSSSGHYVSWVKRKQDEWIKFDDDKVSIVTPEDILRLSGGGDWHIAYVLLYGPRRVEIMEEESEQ

On to `Cc1c(C(=O)CN2C3CCC2C(O)C3)cc([C@@H]2C[C@H]2CCC#N)n1-c1ccc(C#N)cc1` (mixture of isomers) [Example 17B, (±)-4-(5-((1R,2R)-2-(2-Cyanoethyl)cyclopropyl)-3-(2-((2R)-2-hydroxy-7-azabicyclo[2.2.1]heptan-7-yl)acetyl)-2-methyl-1H-pyrrol-1-yl)benzonitrile], for which the IC50 was 50 to 500 nM.

`Cc1c(CCCCS(C)(=O)=O)c(C(=O)CN2C3CCC2[C@@H](O)C3)c(C)n1-c1ccc(C#N)cc1` (mixture of isomers) [Example 19B, (±)-4-(3-(2-((2R)-2-Hydroxy-7-azabicyclo[2.2.1]heptan-7-yl)acetyl)-2,5-dimethyl-4-(4-(methylsulfonyl)butyl)-1H-pyrrol-1-yl)benzonitrile] yielded an IC50 greater than 500 nM.

Consider `Cc1c(C(=O)CN2C3CCC2[C@@H](O)C3)cc(/C=C/CCC#N)n1-c1ccc(C#N)cc1` (mixture of isomers) [Example 20B, (±)-4-(5-((E)-4-Cyanobut-1-en-1-yl)-3-(2-((2R)-2-hydroxy-7-azabicyclo[2.2.1]heptan-7-yl)acetyl)-2-methyl-1H-pyrrol-1-yl)benzonitrile], for which the IC50 was less than 50 nM.

Compound `Cc1c(C(=O)CN2[C@@H]3CC[C@H]2[C@@H](O)C3)cc(CCCC2COC2)n1-c1ccc(C#N)cc1` (racemic) [Example 22B, (±)-4-(3-(2-((1R,2R,4S)-2-Hydroxy-7-azabicyclo[2.2.1]heptan-7-yl)acetyl)-2-methyl-5-(3-(oxetan-3-yl)propyl)-1H-pyrrol-1-yl)benzonitrile] returned an IC50 of less than 50 nM.

The compound `Cc1c(C(=O)CN2[C@@H]3CC[C@H]2[C@@H](O)C3)cc(CCCCC2COC2)n1-c1ccc(C#N)cc1` (racemic) [Example 23B, (±)-4-(3-(2-((1S,2S,4R)-2-Hydroxy-7-azabicyclo[2.2.1]heptan-7-yl)acetyl)-2-methyl-5-(4-(oxetan-3-yl)butyl)-1H-pyrrol-1-yl)benzonitrile] registered an IC50 of less than 50 nM.

Take `Cc1c(C(=O)CN2C3CCC2[C@@H](O)C3)cc(CCCn2cccn2)n1-c1ccc(C#N)cc1` (mixture of isomers) [Example 24B, (±)-4-(5-(3-(1H-Pyrazol-1-yl)propyl)-3-(2-((2R)-2-hydroxy-7-azabicyclo[2.2.1]heptan-7-yl)acetyl)-2-methyl-1H-pyrrol-1-yl)benzonitrile]: the IC50 was 50 to 500 nM.

With `Cc1c(C(=O)CN2[C@@H]3CC[C@H]2[C@@H](O)C3)cc(/C=C/Cn2cccn2)n1-c1ccc(C#N)cc1` (racemic) [Example 27B, (±)-4-(5-((E)-3-(1H-Pyrazol-1-yl)prop-1-en-1-yl)-3-(2-((1S,2S,4R)-2-hydroxy-7-azabicyclo[2.2.1]heptan-7-yl)acetyl)-2-methyl-1H-pyrrol-1-yl)benzonitrile], the IC50 is less than 50 nM.

As to `Cc1c(C(=O)CN2[C@@H]3CC[C@H]2[C@@H](O)C3)cc(CCCCC#N)n1-c1ccc(Cl)cc1` (racemic) [Example 29B, (±)-5-(1-(4-Chlorophenyl)-4-(2-((1R,2R,4S)-2-hydroxy-7-azabicyclo[2.2.1]heptan-7-yl)acetyl)-5-methyl-1H-pyrrol-2-yl)pentanenitrile], the IC50 is less than 50 nM.

On to `Cc1c(C#N)c(C(=O)CN2C3CCC2[C@@H](O)C3)c(C)n1-c1ccc(C#N)cc1` (mixture of isomers) [Example 33B, (±)-1-(4-Cyanophenyl)-4-(2-((2R)-2-hydroxy-7-azabicyclo[2.2.1]heptan-7-yl)acetyl)-2,5-dimethyl-1H-pyrrole-3-carbonitrile], for which the IC50 was greater than 500 nM.

Take `CSCCCCc1cc(C(=O)CN2C3CCC2[C@@H](O)C3)c(C)n1-c1ccc(C#N)cc1` (mixture of isomers) [Example 37B, (±)-4-(3-(2-((2R)-2-Hydroxy-7-azabicyclo[2.2.1]heptan-7-yl)acetyl)-2-methyl-5-(4-(methylthio)butyl)-1H-pyrrol-1-yl)benzonitrile]: the IC50 is less than 50 nM.

Turning to `CSCCCCCc1cc(C(=O)CN2[C@@H]3CC[C@H]2[C@@H](O)C3)c(C)n1-c1ccc(C#N)cc1` (racemic) [Example 38B, (±)-4-(3-(2-((1R,2R,4S)-2-Hydroxy-7-azabicyclo[2.2.1]heptan-7-yl)acetyl)-2-methyl-5-(5-(methylthio)pentyl)-1H-pyrrol-1-yl)benzonitrile], the IC50 was less than 50 nM.

Take `Cc1c(C(=O)CN2C3CCC2[C@@H](O)C3)cc(CC2COC2)n1-c1ccc(C#N)cc1` (mixture of isomers) [Example 39B, (±)-4-(3-(2-((2R)-2-Hydroxy-7-azabicyclo[2.2.1]heptan-7-yl)acetyl)-2-methyl-5-(oxetan-3-ylmethyl)-1H-pyrrol-1-yl)benzonitrile]: the IC50 was less than 50 nM.

Turning to `Cc1c(C(=O)CN2C3CCC2[C@@H](O)C3)c(Cl)c(CCCCC#N)n1-c1ccc(C#N)c(F)c1` (mixture of isomers) [Example 40B, (±)-4-(3-Chloro-2-(4-cyanobutyl)-4-(2-((2R)-2-hydroxy-7-azabicyclo[2.2.1]heptan-7-yl)acetyl)-5-methyl-1H-pyrrol-1-yl)-2-fluorobenzonitrile], the IC50 is less than 50 nM.

`Cc1nc(Cc2cc(C(=O)CN3C4CCC3[C@@H](O)C4)c(C)n2-c2ccc(C#N)cc2)cs1` (mixture of isomers) [Example 41B, (±)-4-(3-(2-((2R)-2-Hydroxy-7-azabicyclo[2.2.1]heptan-7-yl)acetyl)-2-methyl-5-((2-methylthiazol-4-yl)methyl)-1H-pyrrol-1-yl)benzonitrile] came in with an IC50 of less than 50 nM.

The compound `Cc1c(C(=O)CN2C3CCC2[C@@H](O)C3)cc(CCCC2(C)COC2)n1-c1ccc(C#N)cc1` (mixture of isomers) [Example 42B, (±)-4-(3-(2-((2R)-2-Hydroxy-7-azabicyclo[2.2.1]heptan-7-yl)acetyl)-2-methyl-5-(3-(3-methyloxetan-3-yl)propyl)-1H-pyrrol-1-yl)benzonitrile] registered an IC50 of less than 50 nM.

Consider `Cc1c(C(=O)CN2C3CCC2[C@@H](O)C3)cc(CCC2COC2)n1-c1ccc(C#N)cc1` (mixture of isomers) [Example 43B, (±)-4-(3-(2-((2R)-2-Hydroxy-7-azabicyclo[2.2.1]heptan-7-yl)acetyl)-2-methyl-5-(2-(oxetan-3-yl)ethyl)-1H-pyrrol-1-yl)benzonitrile], for which the IC50 is less than 50 nM.

Compound `Cc1c(C(=O)CN2[C@@H]3CC[C@@H]2[C@@H](O)C3)cc(CC2CCOCC2)n1-c1ccc(C#N)cc1` (racemic) [Example 44B, (±)-4-(3-(2-((1R,2S,4R)-2-Hydroxy-7-azabicyclo[2.2.1]heptan-7-yl)acetyl)-2-methyl-5-((tetrahydro-2H-pyran-4-yl)methyl)-1H-pyrrol-1-yl)benzonitrile] showed an IC50 of less than 50 nM.

In turn, `Cc1c(C(=O)CN2C3CCC2[C@@H](O)C3)cc(C[C@H]2C[C@H](C#N)C2)n1-c1ccc(C#N)cc1` (mixture of isomers) [Example 45B, (±)-4-(5-(((1r,3R)-3-Cyanocyclobutyl)methyl)-3-(2-((2R)-2-hydroxy-7-azabicyclo[2.2.1]heptan-7-yl)acetyl)-2-methyl-1H-pyrrol-1-yl)benzonitrile] displayed an IC50 of less than 50 nM.

With `Cc1c(C(=O)CN2C3CCC2[C@@H](O)C3)c(Cl)c(/C=C/CC(C)(C)C#N)n1-c1ccc(C#N)cc1` (mixture of isomers) [Example 46B, (±)-4-(3-Chloro-2-((E)-4-cyano-4-methylpent-1-en-1-yl)-4-(2-((2R)-2-hydroxy-7-azabicyclo[2.2.1]heptan-7-yl)acetyl)-5-methyl-1H-pyrrol-1-yl)benzonitrile], the IC50 is 50 to 500 nM.

As for `Cc1c(C(=O)CN2C3CCC2[C@@H](O)C3)cc(C#N)n1-c1ccc(C#N)cc1` (mixture of isomers) [Example 47B, (±)-1-(4-Cyanophenyl)-4-(2-((2R)-2-hydroxy-7-azabicyclo[2.2.1]heptan-7-yl)acetyl)-5-methyl-1H-pyrrole-2-carbonitrile], the IC50 is less than 50 nM.

As for `Cc1c(C(=O)CN2C3CCC2[C@@H](O)C3)cc(CC[Si](C)(C)C)n1-c1ccc(C#N)cc1` (mixture of isomers) [Example 50B, (±)-4-(3-(2-((2R)-2-Hydroxy-7-azabicyclo[2.2.1]heptan-7-yl)acetyl)-2-methyl-5-(2-(trimethylsilyl)ethyl)-1H-pyrrol-1-yl)benzonitrile], the IC50 is 50 to 500 nM.

On to `Cc1c(C(=O)CN2C3CCC2[C@@H](O)C3)cc(CCCC2CC(C)(C)OC2=O)n1-c1ccc(C#N)cc1` (mixture of isomers) [Example 51B, (±)-4-(5-(3-(5,5-Dimethyl-2-oxotetrahydrofuran-3-yl)propyl)-3-(2-((1R,2R,4S)-2-hydroxy-7-azabicyclo[2.2.1]heptan-7-yl)acetyl)-2-methyl-1H-pyrrol-1-yl)benzonitrile], for which the 50% inhibitory concentration (IC50) was less than 50 nM.

The compound `Cc1c(C(=O)CN2C3CCC2[C@@H](O)C3)cc(/C=C/CC2CC(C)(C)OC2=O)n1-c1ccc(C#N)cc1` (mixture of isomers) [Example 52B, (±)-4-(5-((E)-3-(5,5-Dimethyl-2-oxotetrahydrofuran-3-yl)prop-1-en-1-yl)-3-(2-((1S,2S,4R)-2-hydroxy-7-azabicyclo[2.2.1]heptan-7-yl)acetyl)-2-methyl-1H-pyrrol-1-yl)benzonitrile] came in with an IC50 of less than 50 nM.

`Cc1c(C(=O)CN2[C@@H]3CC[C@H]2[C@@H](C)C3)cc(CC2COC2)n1-c1ccc(C#N)cc1` (racemic) [Example 53B, (±)-4-(2-Methyl-3-(2-((1R,2R,4S)-2-methyl-7-azabicyclo[2.2.1]heptan-7-yl)acetyl)-5-(oxetan-3-ylmethyl)-1H-pyrrol-1-yl)benzonitrile] came in with a 50% inhibitory concentration (IC50) of less than 50 nM.

`Cc1c(C(=O)CN2[C@@H]3CC[C@H]2[C@@H](O)C3)cc(CCC2(C)COC2)n1-c1ccc(C#N)cc1` (racemic) [Example 55B, (±)-4-(3-(2-((1R,2R,4S)-2-Hydroxy-7-azabicyclo[2.2.1]heptan-7-yl)acetyl)-2-methyl-5-(2-(3-methyloxetan-3-yl)ethyl)-1H-pyrrol-1-yl)benzonitrile]: the IC50 was less than 50 nM.

`Cc1c(C(=O)CN2[C@H]3CC[C@@H]2[C@@H](C)C3)cc(CC2COC2)n1-c1ccc(C#N)cc1` (racemic) [Example 56B, (±)-4-(2-Methyl-3-(2-((1R,2S,4S)-2-methyl-7-azabicyclo[2.2.1]heptan-7-yl)acetyl)-5-(oxetan-3-ylmethyl)-1H-pyrrol-1-yl)benzonitrile]: the IC50 was in the range of 50 to 500 nM.

(Values after US11560385B2, “Proteasome activity enhancing compounds” (Proteostasis Therapeutics, Inc., priority 2018, dated 2023).)
